One data set has as its target HCV replicon 1b (Huh-9B). Kind of data set: HCV replicon activity, luciferase detection on the replicon plate. The data set is classed as cell-based, HCV genotype 1b. To be noted: Huh-9B replicon cells, luciferase signal. The source says:
1b replicon (Huh.7) described in Science 285, 110-113. • Huh-9B: liver cell line with persistent bicistronic HCV genotype 1b coding sequence: [I3891ucubineo—3-3′_ET] includes firefly luciferase-ubiquitin-neomycin phosphotransferase fusion protein and EMCV-IRES driven non-structural HCV (NS3 to NS5B) coding sequence including cell culture adaptive mutations E1202G, […] and K1846T (Lohmann et al, 2001).
This assay is set up using all 96 wells of flat-bottomed 96-well plates. Plates are set up one day before addition of compounds. The assay then runs for 4 days with ELISA development taking place on the 5th day.
Exponentially growing Huh-9B monolayers are washed with sterile PBS to remove serum and treated with trypsin to detach cells from the flask.
(§1) Cells are suspended in growth media and counted using a haemocytometer. Duplicate 96 well plates are seeded with Huh-9B at a density of 10^4 cells/well in a total volume of 100 μl/well of growth medium without antibiotics as depicted below.
(§2) One of the plates is an opaque white 96-well plate used for IC50 determination based on the luciferase signal (referred as replicon plate), the other one is a clear 96-well plate used for a parallel determination of drug toxicity by methylene blue staining (referred as tox plate). Wells G12 and H12 of the tox plate are left without cells to use as buffer alone background reading.
Plates are then incubated at 37° C. in a 5% CO2 environment for 24 h to obtain a 90% confluent cell monolayer.
(§3) Doubling dilutions of each compound are generated in a separate 96 high volume capacity round bottom plate to twice their initial concentration in the assay using growth medium without antibiotics.
Five compounds (C1 to C5) are tested on each assay plate as illustrated below plus a control compound that is also included in each plate.
(§4) Compounds are tested across an 8 point doubling dilution series. The initial dilution of each compound to be tested is 25 μM and 12.5 μM for the control compound.
DMSO only wells (A1 and A2) at 1% provide the signal corresponding to maximal (100%) luciferase detection. […] The signal from the DMSO wells at 1% (maximal signal) constitutes the assay window.
(§5) For each compound dilution on the 2×96-well dilution plate 100 μl are transferred using a multichannel pipette onto the replicon and tox plates mirror wells which contain […] of medium to obtain the desired final concentration.
Media is tapped out from wells into Virkon and plates are washed once in warm PBS and tapped dry gently.
For each well 20 μl of lysis buffer is added by multichannel pipette. Lysates are stable at this point for several hours.
Luciferase assay buffer is placed it in the luminometer (Lmax, Molecular Devices).
The M injector is primed with 4×300 μl of luciferase assay buffer. The plate to be analyzed is placed in the luminometer and […] of luciferase assay buffer injected automatically into one well followed by 4 seconds integration read out.
After one second delay a second well is injected with 100 μl of luciferase assay buffer followed by 4 seconds integration read out and so forth until all 96 wells are analyzed.
Once the reading is finished the luminometer injection system is washed with deionised water.
The data is acquired using the SOFTmax for Lmax Pro software package.
(§6) SOFTmax data files are exported as Excel or text files. A standard four parameters non-linear regression analysis of the data obtained from each compound is then used to calculate the IC50.
(§7) In the above analysis all replicate wells are meaned. The % of control is then calculated for each concentration point as a percentage of the DMSO control wells.
A general note: A replicon is a self-replicating genome or part of one, used to study replication in cells.

Another data set has as its system Huh-9B. Kind of data set: Toxicity determination on the tox plate by methylene blue staining. To be noted: Huh-9B cells, parallel tox plate. The data set is classed as cell-based. As to the method:
as §1, §2, §3, §4, §5
Media is tapped out from wells into Virkon and plates tapped dry gently. To each well 100 μl of 0.5% solution of methylene blue in 50% methanol is added to all wells including blanks (G12 and H12). Plates are left at RT for a minimum of 1 h. Plates are then rinsed gently by immersing in a plastic box with water, tapped dry gently and left open until they are fully dry. Dye is solubilized adding 100 μl of 1% lauroylsarcosine to each well and shaking for 1 h at 37° C. Plates are read on the SpectraMax spectrophotometer at 620 nm wavelength using the SOFTmax Pro software package.
as §6, §7

The results in this text go back to patent US20100158863A1, “TRIAZOLOANILINOPYRIMIDINE DERIVATIVES FOR USE AS ANTIVIRAL AGENTS” (ARROW THERAPEUTICS LIMITED, priority 2006, published 2010).

“1-(4-{6-[3-Fluoro-4-(2-methoxy-ethoxy)-phenyl]-quinazolin-4-ylamino}-phenyl)-5-methyl-1H-[1,2,4]triazole-3-carboxylic acid [Example 28]” displayed an IC50 against HCV replicon 1b (Huh-9B) of 5 to 20 µM. Besides, the “Replicon TD50” value with Huh-9B was “** (** >25 μM)”.

In the data set with HCV replicon 1b (Huh-9B) (Hepatitis C virus), `Ic1ccc2ncnc(Nc3ccc(-n4cncn4)cc3)c2c1` [Example 1, (6-Iodo-quinazolin-4-yl)-(4-[1,2,4]triazol-1-yl-phenyl)-amine] had an IC50 of under 5 µM. Also, the “Replicon TD50” value with Huh-9B is on record as “* (* <25 μM)”.

Molecule `CC(C)(C)c1ccc2ncnc(Nc3ccc(-n4cncn4)cc3)c2c1` [Example 2, (6-tert-Butyl-quinazolin-4-yl)-(4-[1,2,4]triazol-1-yl-phenyl)-amine] returned an IC50 in the data set on HCV replicon 1b (Huh-9B) (Hepatitis C virus) of 5 to 20 µM. Further, the “Replicon TD50” value in the data set on Huh-9B is “** (** >25 μM)”.

As to `COc1cc2c(Nc3ccc(-n4cncn4)cc3)ncnc2cc1OCCCCl` [Example 3, [7-(3-Chloro-propoxy)-6-methoxy-quinazolin-4-yl]-(4-[1,2,4]triazol-1-yl-phenyl)amine], the IC50 in the data set on HCV replicon 1b (Huh-9B) (Hepatitis C virus) is under 5 µM. Moreover, in the data set with Huh-9B, the “Replicon TD50” value is “** (** >25 μM)”.

The molecule `COc1cc2c(Nc3ccc(-n4cncn4)cc3)ncnc2cc1OCCCN1CCOCC1` [Example 4, [6-Methoxy-7-(3-morpholin-4-yl-propoxy)-quinazolin-4-yl]-(4-[1,2,4]triazol-1-yl-phenyl)-amine] returned an IC50 in the data set with HCV replicon 1b (Huh-9B) (Hepatitis C virus) of 5 to 20 µM. For the same molecule, the “Replicon TD50” value in the data set on Huh-9B is “** (** >25 μM)”.

In the data set with HCV replicon 1b (Huh-9B) (Hepatitis C virus), `Fc1ccc(-c2ccc3ncnc(Nc4ccc(-n5cncn5)cc4)c3c2)cc1F` [Example 5, [6-(3,4-Difluoro-phenyl)-quinazolin-4-yl]-(4-[1,2,4]triazol-1-yl-phenyl)-amine] gave an IC50 of under 5 µM. In the data set with Huh-9B, the “Replicon TD50” value is listed as “** (** >25 μM)”.

Turning to `Fc1cc(-c2ccc3ncnc(Nc4ccc(-n5cncn5)cc4)c3c2)ccc1Cl` [Example 6, [6-(4-Chloro-3-fluoro-phenyl)-quinazolin-4-yl]-(4-[1,2,4]triazol-1-yl-phenyl)-amine], in the data set on HCV replicon 1b (Huh-9B) (Hepatitis C virus), the IC50 was over 20 µM. Moreover, in the data set on Huh-9B, the “Replicon TD50” value is “** (** >25 μM)”.

In turn, `COc1ccc(-c2ccc3ncnc(Nc4ccc(-n5cncn5)cc4)c3c2)cc1F` [Example 7, [6-(3-Fluoro-4-methoxy-phenyl)-quinazolin-4-yl]-(4-[1,2,4]triazol-1-yl-phenyl)-amine] gave an IC50 in the data set with HCV replicon 1b (Huh-9B) (Hepatitis C virus) of under 5 µM. In the data set with Huh-9B, the “Replicon TD50” value was “** (** >25 μM)”.

For `CCOc1ccc(-c2ccc3ncnc(Nc4ccc(-n5cncn5)cc4)c3c2)cc1F` [Example 8, [6-(4-Ethoxy-3-fluoro-phenyl)-quinazolin-4-yl]-(4-[1,2,4]triazol-1-yl-phenyl)-amine], the IC50 in the data set with HCV replicon 1b (Huh-9B) (Hepatitis C virus) was under 5 µM. In addition, the “Replicon TD50” value with Huh-9B is “** (** >25 μM)”.

As to `COCCOc1ccc(-c2ccc3ncnc(Nc4ccc(-n5cncn5)cc4)c3c2)cc1F` [Example 9, {6-[3-Fluoro-4-(2-methoxy-ethoxy)-phenyl]-quinazolin-4-yl}-(4-[1,2,4]triazol-1-yl-phenyl)-amine], in the data set with HCV replicon 1b (Huh-9B) (Hepatitis C virus), the IC50 is under 5 µM. Besides, the “Replicon TD50” value in the data set on Huh-9B was “** (** >25 μM)”.

`CCOc1ccc(-c2ccc3ncnc(Nc4ccc(-n5cncn5)cc4)c3c2)cc1OCC` [Example 11, [6-(3,4-Diethoxy-phenyl)-quinazolin-4-yl]-(4-[1,2,4]triazol-1-yl-phenyl)-amine] returned an IC50 in the data set with HCV replicon 1b (Huh-9B) (Hepatitis C virus) of under 5 µM. Further, the “Replicon TD50” value in the data set with Huh-9B is reported as “** (** >25 μM)”.

In the data set with HCV replicon 1b (Huh-9B) (Hepatitis C virus), `CN(C)CCOc1ccc(-c2ccc3ncnc(Nc4ccc(-n5cncn5)cc4)c3c2)cc1` [Example 12, {6-[4-(2-Dimethylamino-ethoxy)-phenyl]-quinazolin-4-yl}-(4-[1,2,4]triazol-1-yl-phenyl)-amine] yielded an IC50 of under 5 µM. In addition, in the data set with Huh-9B, the “Replicon TD50” value is reported as “* (* <25 μM)”.

On to `c1cc(COc2ccc(-c3ccc4ncnc(Nc5ccc(-n6cncn6)cc5)c4c3)cc2)ccn1` [Example 13], for which the IC50 against HCV replicon 1b (Huh-9B) fell in the range of 5 to 20 µM. Also, in the data set with Huh-9B, the “Replicon TD50” value was “* (* <25 μM)”.

At HCV replicon 1b (Huh-9B), `c1nc(Nc2ccc(-n3cncn3)cc2)c2cc(-c3ccc(N4CCOCC4)cc3)ccc2n1` [Example 14] yielded an IC50 of under 5 µM. In addition, in the data set on Huh-9B, the “Replicon TD50” value is “* (* <25 μM)”.

`c1nc(Nc2ccc(-n3cncn3)cc2)c2cc(-c3ccc4c(c3)OCCO4)ccc2n1` [Example 15, [6-(2,3-Dihydro-benzo[1,4]dioxin-6-yl)-quinazolin-4-yl]-(4-[1,2,4]triazol-1-yl-phenyl)-amine] registered an IC50 in the data set with HCV replicon 1b (Huh-9B) (Hepatitis C virus) of under 5 µM. Further, the “Replicon TD50” value in the data set with Huh-9B was “** (** >25 μM)”.

Turning to `COc1ncc(-c2ccc3ncnc(Nc4ccc(-n5cncn5)cc4)c3c2)cn1` [Example 16, [6-(2-Methoxy-pyrimidin-5-yl)-quinazolin-4-yl]-(4-[1,2,4]triazol-1-yl-phenyl)-amine], the IC50 with HCV replicon 1b (Huh-9B) (Hepatitis C virus) is under 5 µM. In addition, the “Replicon TD50” value in the data set with Huh-9B is “** (** >25 μM)”.

For the molecule `c1csc(-c2ccc3ncnc(Nc4ccc(-n5cncn5)cc4)c3c2)c1` [Example 17, (6-Thiophen-2-yl-quinazolin-4-yl)-(4-[1,2,4]triazol-1-yl-phenyl)-amine], in the data set on HCV replicon 1b (Huh-9B) (Hepatitis C virus), the IC50 is under 5 µM. Further, in the data set on Huh-9B, the “Replicon TD50” value is “** (** >25 μM)”.

`Cc1csc(-c2ccc3ncnc(Nc4ccc(-n5cncn5)cc4)c3c2)c1` [Example 18, [6-(4-Methyl-thiophen-2-yl)-quinazolin-4-yl]-(4-[1,2,4]triazol-1-yl-phenyl)-amine]: the IC50 in the data set with HCV replicon 1b (Huh-9B) (Hepatitis C virus) was under 5 µM. In addition, in the data set on Huh-9B, the “Replicon TD50” value is “** (** >25 μM)”.

`c1coc(-c2ccc3ncnc(Nc4ccc(-n5cncn5)cc4)c3c2)c1` [Example 19] came in with an IC50 against HCV replicon 1b (Huh-9B) of under 5 µM. In the data set with Huh-9B, the “Replicon TD50” value is reported as “** (** >25 μM)”.

In the case of `CN(C)CCOc1ccc(-c2ccc3ncnc(Nc4ccc(-n5cncn5)cc4)c3c2)cc1F` [Example 20, {6-[4-(2-Dimethylamino-ethoxy)-3-fluoro-phenyl]-quinazoline-4-yl}-(4-[1,2,4]triazole-1-yl-phenyl)amine], in the data set with HCV replicon 1b (Huh-9B) (Hepatitis C virus), the IC50 was under 5 µM. Besides, the “Replicon TD50” value with Huh-9B is listed as “* (* <25 μM)”.

The molecule `Brc1ccc2ncnc(Nc3ccc(-n4cncn4)cc3)c2c1` [Example 21, (6-Bromo-quinazolin-4-yl)-(4-[1,2,4]triazol-1-yl-phenyl)-amine] yielded an IC50 in the data set with HCV replicon 1b (Huh-9B) (Hepatitis C virus) of under 5 µM. In addition, the “Replicon TD50” value with Huh-9B was “** (** >25 μM)”.

`CN(C)CCN(C)CCOc1ccc(-c2ccc3ncnc(Nc4ccc(-n5cncn5)cc4)c3c2)cc1F` [Example 22, N-(2-{2-Fluoro-4-[4-(4-[1,2,4]triazol-1-yl-phenylamino)-quinazolin-6-yl]-phenoxy}-ethyl)-N,N′,N′-trimethyl-ethane-1,2-diamine] showed an IC50 with HCV replicon 1b (Huh-9B) (Hepatitis C virus) of under 5 µM. Also, the “Replicon TD50” value with Huh-9B is on record as “* (* <25 μM)”.

Regarding `COc1ccc(-c2ccc3ncnc(Nc4ccc(-n5cncn5)cc4)c3c2)cc1OC(C)C` [Example 23, [6-(3-Isopropoxy-4-methoxy-phenyl)-quinazolin-4-yl]-(4-[1,2,4]triazol-1-yl-phenyl)-amine], the IC50 in the data set on HCV replicon 1b (Huh-9B) (Hepatitis C virus) is under 5 µM. Also, the “Replicon TD50” value with Huh-9B was “* (* <25 μM)”.

In turn, `CC(C)Oc1cc(-c2ccc3ncnc(Nc4ccc(-n5cncn5)cc4)c3c2)ccc1F` [Example 24, [6-(4-Fluoro-3-isopropoxy-phenyl)-quinazolin-4-yl]-(4-[1,2,4]triazol-1-yl-phenyl)-amine] showed an IC50 with HCV replicon 1b (Huh-9B) (Hepatitis C virus) of under 5 µM. Moreover, the “Replicon TD50” value in the data set with Huh-9B is given as “** (** >25 μM)”.

One may read the IC50 as the concentration at which inhibition is half-maximal.
